The test system of one assay is IL-1β. The assay can be described thus: Pro-inflammatory cytokines in sera of CIA Collagen mice (ELISA, day 58): IL-1β. Type of assay: in vivo. The note with it: Dexamethasone oral 1 mg/kg, 20 times between day 28 and 57. As to the method:
(§1) Critical administration 124 disclosed herein is further described below. Q5D represents administration 5 days a part. TBSV·pLIp1 and wt TBSV shown in Table 1 may include liquid form that are not sterile and stored in −20° C. TBSV·pLIp1 may be given at the dose of 50 μG/100 μL Male DBA/1J mice (8 weeks; Envigo, Italy) may be used for these studies. Mice may be housed in individual cages (two for each group) and maintained under a 12:12 light-dark cycle at 21° C.±1° C. and 50%±5% humidity. The animals may be acclimated to their environment for 1 week and had ad libitum access to tap water and standard rodent diet. All animal experiments may be complied with regulations in Italy (D.M. 116192), Europe (O.J of E.C. L 358/112/18/1986), and the United States (Animal Welfare Assurance Number A5594-01, Department of Health and Human Services, USA). […] Arthritis was assessed by using qualitative severity score system and hind paw volume (mL) measured by a plethysmometer on day 20, 22, 24, 26, 28, 30, 32, 34, 36, 38, 40, 42, 44, 46 48, 50, 52, 54, 56 and 58. Body weight was recorded on day 0, 6, 13, 16, 18, 20, 22, 24, 26, 28, 30, 32, 34, 36, 38, 40, 42, 44, 46, 50, 52, 54, 56 and 58. […]
(In general: An ELISA detects its analyte on a solid surface through an enzyme-linked reagent.)

The next assay relates to IFN-γ. The assay can be described thus: Pro-inflammatory cytokines in sera of CIA Collagen mice (ELISA, day 58): IFN-γ. Format: in vivo. The note with it: Dexamethasone oral 1 mg/kg, 20 times between day 28 and 57. As to the method:
as §1

As for `C[C@@H]1C[C@H]2[C@@H]3CCC4=CC(=O)C=C[C@]4(C)[C@@]3(F)[C@@H](O)C[C@]2(C)[C@@]1(O)C(=O)CO` [Dexamethasone, dexamethasone], the “IL-1β, % of reduction vs CIA Collagen” value in the assay with IL-1β stood at 22.74%. In addition, the “IFN-γ, % of reduction vs CIA Collagen” value with IFN-γ came out at 37.39%.

The values above are taken from patent publication US12527849B2, “Apparatus for determining administration form of a composition of an engineered virus-based nanoparticle for a treatment of an autoimmune condition” (Diamante Srl, priority 2021, dated 2026).
